Measured values from patent publication US10597388B2, “Pyridazinone herbicides” (FMC CORPORATION, priority 2014, dated 2020).

Tests used:
Type in all cases: in vivo
[1] = tested on: galium (catchweed bedstraw, Galium aparine); assay: Test A greenhouse herbicide test, postemergence
Summary of the method: (§1)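 Pot-grown plants (loam soil/sand blend), 2–10 cm tall at the one- to two-leaf stage, received postemergence sprays of formulated test chemical. After about 10 d in the greenhouse, injury was rated visually against untreated controls on a 0 (no effect) to 100 (complete control) scale.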

[2] = tested on: blackgrass (Alopecurus myosuroides); assay: Test A greenhouse herbicide test, postemergence
Summary of the method: as §1

[3] = tested on: wheat (Triticum aestivum); assay: Test A greenhouse herbicide test, pre- and postemergence; conditions: Postemergence
Summary of the method: (§2)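 Seeds in loam–sand blend received a preemergence directed soil spray; plants at 2–10 cm, one- to two-leaf stage, received postemergence sprays. Compounds in a non-phytotoxic solvent with surfactant. After about 10 d in a greenhouse, injury rated visually versus untreated controls on a 0–100 scale (100 = complete control).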

[4] = tested on: ryegrass, Italian (Italian ryegrass, Lolium multiflorum); assay: as above
Summary of the method: as §2

[5] = tested on: barnyardgrass (Echinochloa crus-galli); assay: as above
Summary of the method: as §2

[6] = tested on: pigweed (Amaranthus retroflexus); assay: as above
Summary of the method: as §2

[7] = tested on: ragweed (common ragweed, Ambrosia elatior); assay: as above
Summary of the method: as §2

[8] = tested on: foxtail, giant (giant foxtail, Setaria faberii); assay: as above
Summary of the method: as §2

corn (Zea mays) = assay: as above; conditions: Postemergence
Summary of the method: as §2

kochia (Kochia scoparia) = assay: as above
Summary of the method: as §2

[9] = tested on: sedge, umbrella (small-flower umbrella sedge, Cyperus difformis); assay: Test B flooded paddy test; conditions: 250 g ai/ha, Flood; visual rating on scale of 0 to 100 where 0 is no effect and 100 is complete control; 13 to 15 d after treatment
Summary of the method: (§3)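 Plants grown to the 2-leaf stage. At treatment, pots were flooded to 3 cm above the soil, compound was applied directly to the paddy water, and that depth was held throughout. After 13 to 15 d in the greenhouse, response was rated visually against controls on a 0 (no effect) to 100 (complete control) scale.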

[10] = tested on: barnyardgrass (Echinochloa crus-galli); assay: Test B flooded paddy test; conditions: 250 g ai/ha, Flood; visual rating on scale of 0 to 100 where 0 is no effect and 100 is complete control; 13 to 15 d after treatment
Summary of the method: as §3

[11] = tested on: ducksalad (Heteranthera limosa); assay: Test B flooded paddy test; conditions: 250 g ai/ha, Flood; visual rating on scale of 0 to 100 where 0 is no effect and 100 is complete control; 13 to 15 d after treatment
Summary of the method: as §3

rice (Oryza sativa) = assay: Test B flooded paddy test; conditions: 250 g ai/ha, Flood; visual rating on scale of 0 to 100 where 0 is no effect and 100 is complete control; 13 to 15 d after treatment
Summary of the method: as §3

[12] = 125 g ai/ha, 0 to 100 scale, 0 no effect, 100 complete control
[13] = 500 g ai/ha, visual rating after approx. 10 d, 0 to 100 scale (0 no effect, 100 complete control)
[14] = Postemergence, 125 g ai/ha, 0 to 100 scale, 0 no effect, 100 complete control
[15] = Postemergence, 500 g ai/ha, visual rating after approx. 10 d, 0 to 100 scale (0 no effect, 100 complete control)
[16] = Preemergence, 125 g ai/ha, visual injury rating, 0 to 100 scale (0 no effect, 100 complete control), approx. 10 d
[17] = Preemergence, 500 g ai/ha, 0 to 100 scale where 0 is no effect and 100 is complete control
[18] = 1000 g ai/ha, 0 to 100 scale, 0 is no effect, 100 is complete control
[19] = Postemergence, 1000 g ai/ha, 0 to 100 scale, 0 is no effect, 100 is complete control
[20] = Preemergence, 1000 g ai/ha, 0 to 100 scale, 0 no effect, 100 complete control

For `Cc1ccc2ccccc2c1-c1c(O)c([N+](=O)[O-])nn(C)c1=O` [Compound 177], the “Plant response rating, Galium” value [1, 12] was 0, the “Plant response rating, Galium” value [1, 13] was 0 and the “Plant response rating, Blackgrass” value [2, 12] was 0. For the same compound, the “Plant response rating, Blackgrass” value [2, 13] was 0, the “Plant response rating, Wheat” value [3, 12] was 0 and the “Plant response rating, Wheat” value [3, 13] was 0. The “Plant response rating, Ryegrass, Italian” value [4, 14] was 0, the “Plant response rating, Ryegrass, Italian” value [4, 15] was 0 and the “Plant response rating, Ryegrass, Italian” value [4, 16] was 0. The “Plant response rating, Ryegrass, Italian” value [4, 17] was 0, the “Plant response rating, Barnyardgrass” value [5, 14] was 0 and the “Plant response rating, Barnyardgrass” value [5, 15] was 0. The “Plant response rating, Barnyardgrass” value [5, 16] was 0, the “Plant response rating, Barnyardgrass” value [5, 17] was 0 and the “Plant response rating, Pigweed” value [6, 14] was 0. The “Plant response rating, Pigweed” value [6, 15] was 0, the “Plant response rating, Pigweed” value [6, 16] was 0 and the “Plant response rating, Pigweed” value [6, 17] was 0. The “Plant response rating, Ragweed” value [7, 14] was 0, the “Plant response rating, Ragweed” value [7, 15] was 0 and the “Plant response rating, Ragweed” value [7, 16] was 0. The “Plant response rating, Ragweed” value [7, 17] was 0, the “Plant response rating, Foxtail, Giant” value [8, 14] was 0 and the “Plant response rating, Foxtail, Giant” value [8, 15] was 0. The “Plant response rating, Foxtail, Giant” value [8, 16] was 0, the “Plant response rating, Foxtail, Giant” value [8, 17] was 0 and the “Plant response rating, Corn” value (corn (Zea mays); [12]) was 0. The “Plant response rating, Corn” value (corn (Zea mays); [13]) was 0, the “Plant response rating, Kochia” value (kochia (Kochia scoparia); [14]) was 0 and the “Plant response rating, Kochia” value (kochia (Kochia scoparia); [15]) was 0. For the same compound, the “Plant response rating, Kochia” value (kochia (Kochia scoparia); [16]) was 0, the “Plant response rating, Kochia” value (kochia (Kochia scoparia); [17]) was 0 and the “Plant response rating, Sedge, Umbrella” value [9] was 0. For the same compound, the “Plant response rating, Barnyardgrass” value [10] was 0, the “Plant response rating, Ducksalad” value [11] was 0 and the “Plant response rating, Rice” value (rice (Oryza sativa)) was 0.
With `Cc1nn(C)c(=O)c(-c2cccc3ccccc23)c1OCC=Cc1ccccc1` [Compound 180] the “Galium plant response rating” value [1, 18] was 80, the “Blackgrass plant response rating” value [2, 18] was 30 and the “Wheat plant response rating” value [3, 18] was 0. For the same compound, the “Ryegrass, Italian plant response rating” value [4, 19] was 70, the “Plant response rating, Ryegrass, Italian” value [4, 20] was 50 and the “Barnyardgrass plant response rating” value [5, 19] was 0. The “Plant response rating, Barnyardgrass” value [5, 20] was 0, the “Pigweed plant response rating” value [6, 19] was 50 and the “Plant response rating, Pigweed” value [6, 20] was 40. The “Ragweed plant response rating” value [7, 19] was 0, the “Plant response rating, Ragweed” value [7, 20] was 40 and the “Foxtail, Giant plant response rating” value [8, 19] was 0. For the same compound, the “Plant response rating, Foxtail, Giant” value [8, 20] was 10, the “Corn plant response rating” value (corn (Zea mays); [18]) was 0 and the “Kochia plant response rating” value (kochia (Kochia scoparia); [19]) was 40. The “Plant response rating, Kochia” value (kochia (Kochia scoparia); [20]) was 0, the “Plant response rating, Sedge, Umbrella” value [9] was 0 and the “Plant response rating, Barnyardgrass” value [10] was 0. For the same compound, the “Plant response rating, Ducksalad” value [11] was 0 and the “Plant response rating, Rice” value (rice (Oryza sativa)) was 0.
